Results reported in ChEMBL document CHEMBL1139761, “Synthesis and optimization of novel and selective muscarinic M(3) receptor antagonists” (Bioorg Med Chem Lett, 2007).

Molecular target: T1, Muscarinic acetylcholine receptor M2 (Rattus norvegicus, UniProt P10980)
T1 sequence (P10980 whole entry): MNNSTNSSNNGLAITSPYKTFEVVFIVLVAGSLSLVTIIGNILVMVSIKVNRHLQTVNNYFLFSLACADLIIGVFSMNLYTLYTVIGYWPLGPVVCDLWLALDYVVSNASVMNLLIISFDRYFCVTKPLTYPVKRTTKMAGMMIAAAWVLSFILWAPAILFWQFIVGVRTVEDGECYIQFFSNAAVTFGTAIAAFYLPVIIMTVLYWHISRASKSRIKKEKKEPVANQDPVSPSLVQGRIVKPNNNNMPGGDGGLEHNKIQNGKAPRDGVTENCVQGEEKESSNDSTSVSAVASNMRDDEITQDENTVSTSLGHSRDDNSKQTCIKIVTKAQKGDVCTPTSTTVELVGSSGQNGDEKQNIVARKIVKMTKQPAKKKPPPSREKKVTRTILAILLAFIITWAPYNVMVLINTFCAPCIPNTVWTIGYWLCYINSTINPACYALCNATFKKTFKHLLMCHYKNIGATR
Assay: Displacement of [3H]N-methylscopolamine from muscarinic M2 receptor in rat heart

Row | SMILES | Ki [nM]
1 | O=C(N[C@H]1[C@@H]2CN(CCCc3ccccc3)C[C@@H]21)C(O)(c1ccccc1)C1CCCC1 (some centres undefined) | 2630
2 | O=C(N[C@H]1[C@@H]2CN(Cc3ccccc3)C[C@@H]21)C(O)(c1ccccc1)C1CCCCCC1 (some centres undefined) | 349
3 | O=C(N[C@H]1[C@@H]2CN(Cc3ccccc3)C[C@@H]21)C(O)c1ccccc1 (some centres undefined) | > 1000
4 | CC(c1ccccc1)N1C[C@@H]2[C@H](C1)[C@H]2NC(=O)C(O)(c1ccccc1)C1CCCC1 (some centres undefined) | 630
5 | CC(c1ccccc1)N1C[C@@H]2[C@H](C1)[C@H]2NC(=O)C(O)(c1ccccc1)C1CCCCCC1 (some centres undefined) | 39
6 | O=C(N[C@H]1[C@@H]2CN(Cc3cccs3)C[C@@H]21)C(O)(c1ccccc1)C1CCCC1 (some centres undefined) | 3980
7 | Cc1ccc(C(C)N2C[C@@H]3[C@H](C2)[C@H]3NC(=O)C(O)(c2ccccc2)C2CCCC2)cc1 (some centres undefined) | 1230
8 | O=C(N[C@H]1[C@@H]2CN(CCc3ccc(Cl)cc3)C[C@@H]21)C(O)(c1ccccc1)C1CCCC1 (some centres undefined) | 298
9 | COC(=O)c1ccc(CCN2C[C@@H]3[C@H](C2)[C@H]3NC(=O)C(O)(c2ccccc2)C2CCCC2)cc1 (some centres undefined) | 537
10 | O=C(N[C@H]1[C@@H]2CN(CCc3ccc4c(c3)OCO4)C[C@@H]21)C(O)(c1ccccc1)C1CCCC1 (some centres undefined) | 277
11 | O=C(N[C@H]1[C@@H]2CN(Cc3ccc4ccccc4c3)C[C@@H]21)C(O)(c1ccccc1)C1CCCC1 (some centres undefined) | 778
12 | O=C(N[C@H]1[C@@H]2CN(CCc3ccccc3)C[C@@H]21)C(O)(c1ccccc1)C1CCCC1 (some centres undefined) | 335
13 | CC(C)=CCCN1C[C@@H]2[C@H](C1)[C@H]2NC(=O)C(O)(c1ccccc1)C1CCCC1 (some centres undefined) | 1370
14 | CC(C)=CCCN1C[C@@H]2[C@H](C1)[C@H]2NC(=O)[C@@](O)(c1ccccc1)C1CCCC1 | 1140
15 | O=C(N[C@H]1[C@@H]2CN(Cc3ccccc3)C[C@@H]21)C(O)(c1ccccc1)C1CCCC1 (some centres undefined) | 1420
16 | O=C(N[C@H]1[C@@H]2CN(CCc3ccc4c(c3)OCO4)C[C@@H]21)[C@](O)(c1ccccc1)C1CCCC1 | 646
17 | O=C(N[C@H]1[C@@H]2CN(Cc3ccccc3)C[C@@H]21)C(O)(c1ccccc1)C1CCCCC1 (some centres undefined) | 943
18 | Cc1ccc(CCN2C[C@@H]3[C@H](C2)[C@H]3NC(=O)C(O)(c2ccccc2)C2CCCC2)cc1C (some centres undefined) | 812
19 | CC(c1ccccc1)N1C[C@@H]2[C@H](C1)[C@H]2NC(=O)C(O)(c1ccccc1)C1CCCCC1 (some centres undefined) | 154
20 | NC(=O)C(c1ccccc1)(c1ccccc1)[C@@H]1CCN(CCc2ccc3c(c2)CCO3)C1 [DARIFENACIN] | 63

Molecular target: Muscarinic acetylcholine receptor M3 (Rattus norvegicus, UniProt P08483)
Sequence (P08483 whole entry): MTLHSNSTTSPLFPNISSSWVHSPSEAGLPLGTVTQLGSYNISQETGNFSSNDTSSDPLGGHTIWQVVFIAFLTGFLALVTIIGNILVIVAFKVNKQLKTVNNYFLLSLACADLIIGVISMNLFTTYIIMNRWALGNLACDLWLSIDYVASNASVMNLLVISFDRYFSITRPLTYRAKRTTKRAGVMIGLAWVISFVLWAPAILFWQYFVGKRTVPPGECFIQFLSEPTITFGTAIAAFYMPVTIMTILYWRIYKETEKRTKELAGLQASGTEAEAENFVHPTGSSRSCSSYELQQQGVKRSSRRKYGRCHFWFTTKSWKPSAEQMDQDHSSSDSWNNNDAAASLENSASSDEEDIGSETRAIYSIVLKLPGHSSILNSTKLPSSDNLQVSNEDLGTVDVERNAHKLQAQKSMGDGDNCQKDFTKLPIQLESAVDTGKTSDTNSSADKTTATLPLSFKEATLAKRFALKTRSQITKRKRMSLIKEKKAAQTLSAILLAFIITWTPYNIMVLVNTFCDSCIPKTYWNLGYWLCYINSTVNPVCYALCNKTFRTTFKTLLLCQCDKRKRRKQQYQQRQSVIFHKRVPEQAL
Assay: Displacement of [3H]N-methylscopolamine from muscarinic M3 receptor in rat submandibular gland
Type: tissue-based

Row | SMILES | Ki [nM]
21 | O=C(N[C@H]1[C@@H]2CN(CCCc3ccccc3)C[C@@H]21)C(O)(c1ccccc1)C1CCCC1 (some centres undefined) | 776
22 | O=C(N[C@H]1[C@@H]2CN(Cc3ccccc3)C[C@@H]21)C(O)(c1ccccc1)C1CCCCCC1 (some centres undefined) | 6.8
23 | O=C(N[C@H]1[C@@H]2CN(Cc3ccccc3)C[C@@H]21)C(O)c1ccccc1 (some centres undefined) | > 1000
24 | CC(c1ccccc1)N1C[C@@H]2[C@H](C1)[C@H]2NC(=O)C(O)(c1ccccc1)C1CCCC1 (some centres undefined) | 25.1
25 | CC(c1ccccc1)N1C[C@@H]2[C@H](C1)[C@H]2NC(=O)C(O)(c1ccccc1)C1CCCCCC1 (some centres undefined) | 1.8
26 | O=C(N[C@H]1[C@@H]2CN(Cc3cccs3)C[C@@H]21)C(O)(c1ccccc1)C1CCCC1 (some centres undefined) | 524
27 | Cc1ccc(C(C)N2C[C@@H]3[C@H](C2)[C@H]3NC(=O)C(O)(c2ccccc2)C2CCCC2)cc1 (some centres undefined) | 58.9
28 | O=C(N[C@H]1[C@@H]2CN(CCc3ccc(Cl)cc3)C[C@@H]21)C(O)(c1ccccc1)C1CCCC1 (some centres undefined) | 31.3
29 | COC(=O)c1ccc(CCN2C[C@@H]3[C@H](C2)[C@H]3NC(=O)C(O)(c2ccccc2)C2CCCC2)cc1 (some centres undefined) | 43.6
30 | O=C(N[C@H]1[C@@H]2CN(CCc3ccc4c(c3)OCO4)C[C@@H]21)C(O)(c1ccccc1)C1CCCC1 (some centres undefined) | 20
31 | O=C(N[C@H]1[C@@H]2CN(Cc3ccc4ccccc4c3)C[C@@H]21)C(O)(c1ccccc1)C1CCCC1 (some centres undefined) | 42
32 | O=C(N[C@H]1[C@@H]2CN(CCc3ccccc3)C[C@@H]21)C(O)(c1ccccc1)C1CCCC1 (some centres undefined) | 9.3
33 | CC(C)=CCCN1C[C@@H]2[C@H](C1)[C@H]2NC(=O)C(O)(c1ccccc1)C1CCCC1 (some centres undefined) | 33
34 | CC(C)=CCCN1C[C@@H]2[C@H](C1)[C@H]2NC(=O)[C@@](O)(c1ccccc1)C1CCCC1 | 71
35 | O=C(N[C@H]1[C@@H]2CN(Cc3ccccc3)C[C@@H]21)C(O)(c1ccccc1)C1CCCC1 (some centres undefined) | 96
36 | O=C(N[C@H]1[C@@H]2CN(CCc3ccc4c(c3)OCO4)C[C@@H]21)[C@](O)(c1ccccc1)C1CCCC1 | 12.3
37 | O=C(N[C@H]1[C@@H]2CN(Cc3ccccc3)C[C@@H]21)C(O)(c1ccccc1)C1CCCCC1 (some centres undefined) | 31.7
38 | Cc1ccc(CCN2C[C@@H]3[C@H](C2)[C@H]3NC(=O)C(O)(c2ccccc2)C2CCCC2)cc1C (some centres undefined) | 43.6
39 | CC(c1ccccc1)N1C[C@@H]2[C@H](C1)[C@H]2NC(=O)C(O)(c1ccccc1)C1CCCCC1 (some centres undefined) | 5.9
